# Laboratory results: US6677307B2, “TGF-α polypeptides, functional fragments and methods of use therefor” (Kaleidos Pharma, Inc., priority 1999, dated 2004)
# Read-outs that look alike come from different tables or passages of the source.
# What was measured:
# [1] = acid and heat; background statement; cited from earlier work
# [2] = cited from earlier work
# [3] = tested on: EGF receptor family (e.g., ErbB1 through 4); conditions: background statement; cited from earlier work
# [4] = tested on: immune cells (T cell lineage), mast cells; assay: immune cells, mast cells and cytokines in vivo after CP; set-up: species or system mice; conditions: in vivo
# Text: The stimulated immune cells were phenotypically identified as CD4 positive T cells and double null CD4 negative CD8 negative T cell progenitors. […] The in vivo activity of TGFα (and the functional peptides of formula I, formula II, formula III, and formula IV) to stimulate early T cell progenitors in the release of TH-1 and TH-2 cytokines and this regulation of immune phenomena. The stimulation of select immune cells, in particular cells of a T cell lineage, was seen consistently in the mice who received CP and TGF-α57 in lymphoid tissue, Peyers Patches and the spleen. Further, recruitment of help via CD4 cells in some cases boosts immune system function in general.
# This is a parallel activity that is in addition to the gastrointestinal anti-inflammatory activity and prevention of mucositis of TGFα (and the functional peptides of formula I, formula II, formula III, and […]) described herein.
# mouse intestines = assay: histological examination of intestines of CP-treated mice; assay type: in vivo; conditions: CP treatment; 50 μg/kg; FIG. 4
# Method: The experiment procedure dosed those animals to be treated with TGFα 57 4 hours prior to challenge with CP. A single dose of CP was administered. Additional doses (as indicated) of TGFα 57 were made at 24 hours, 48 hours, 72 hours and 96 hours after the CP dose. All doses were made by IP injection. Controls were dosed with saline instead of either or both of CP and TGF-α57.
# The animals were sacrificed about 4 hours after the last TGF-α57 (or saline) dose. Key organs were removed and spleens were immediately weighed after a clean incision. All the relevant organs were placed in formalin, transported for histopathological analysis, mounted, sectioned, stained and observed. The results of this histological analysis of the spleens for hematopoietic effect and the GI tract (below) provided surprising and unexpected data of the effect of TGF-α57 activity.
# TGFα or a peptide from formula I, formula II, formula III, formula IV, formula V, or formula VI having TGFα activity or combinations thereof are also useful for treating mucositis associated intestinal bleeding, dyspepsia caused by with cytotoxic therapy and for improving the barrier function of the GI tract compromised by cytotoxic therapy. The in vivo experiment with seven groups of mice described above for hematopoietic effects noted in spleens also examined the GI tract of these treated mice. […] A single row of intestinal crypt is found at the base of the mucosa. These crypts that lie between adjacent villi are surrounded by the same lamina propria that form the villous cores. Both columnar absorptive cells and goblet cells cover the villous surfaces. The goblet cells contain apical clear vacuoles. […] Specifically, the villus was long and slender. Both absorptive cells and goblet cells were visible at the surface of the villi, and there was an abundant amount of goblet cells on the surface.
# A 160×magnification of the intestines of a CP-treated mouse, a normal mouse and a CP treated and TGFα57 treated mouse at the same doses as described above. […] The crypts were irregularly shaped and in had various heights. […] The crypts also appeared normal.
# Red cells were visible at the damaged surface indicating intestinal bleeding. […] Globlet cells appeared interspersed, necrotic and fewer in number than normal. […] Specifically, the epithelial cells appeared normal with extended brush borders. The nuclei were very densely stained and elongated.
# The histological data is summarized in FIG. 4 that measured average crypt height of the three groups of mice.
# An alcian blue staining method permitted differentiation of absorptive cells and goblet cells. Goblet cell mucus is stained a blue color while the absorptive cells remain less stained. […] In the normal intestine each villus extended from the luminal surface to the basal muscularis mucosal surface. Goblet cells were scattered and predominated in the base of the villus whereas columnar absorptive cells lined the luminal surface. […] The injured absorptive and goblet cells were degenerating at the tip of the villi and abundant secretory mucus material was stained in the luminal surface. In the CP/TGF-α mouse, there were an increased number of goblet cells scattered throughout the villi. The intestinal villi appeared normal with elongation. […] The luminal plasma membranes of the villi were well protected by TGF-α treatment. The number of goblet cells was counted on the average unit length of intestine.
# [5] = assay type: in vivo; conditions: non-human primate, 300 μg/kg ip once, then 50 μg/kg S.C. 6 days
# Method: (§1) In addition, studies of TGF-α for the treatment of diarrhea in non-human primates was also performed. […] This weight gain was maintained at least for several weeks post treatment. In addition, the reduction of SEGs (see column 6, Table 1) neutrophils correlates with reduction in inflammation associated with neutrophil influx and concomitant pro-inflammatory cytokines.
# [6] = tested on: chronic inflammatory-like gastrointestinal symptoms; assay type: in vivo, non-human primate; set-up: wt.: unit not given here; conditions: for wt.: non-human primate, 300 μg/kg ip once, then 50 μg/kg S.C. 6 days
# Method: as §1
# [7] = tested on: human CD34 positive and CD38 negative cells; assay: liquid primary culture of human bone-marrow enriched CD34 cells; assay type: cell-based; conditions: positive control, 500 ng/ml
# Method: An additional experiment investigated TGF-α activity (using TGF-α57) on human bone-marrow enriched CD34 cells. FACS-sorted human CD34 positive and CD38 negative cells were cultured in liquid primary cultures in Iscove's modified Dulbecco's media with supplements. […] Stem Cell Factor (SCF) was used as a positive control (500 ng/ml) and provided a three-fold increase in CD34 positive cells. When a combination of SCF (500 ng/ml) and TGFα (10 ng/ml) was added, a synergistic 12-fold increase in CD34 positive cells was observed.
# stem cells = assay: stimulation of cellular proliferation, 3H thymidine incorporation of stem cells; assay type: cell-based; conditions: loop peptides of human TGFα; compared to TGF-α 50 aa and 57 aa polypeptide; FIG. 2
# Text: Each of the three loop regions in human TGFα was investigated for TGFα-like biological activity, such as stimulation of cellular proliferation as measured by ^3H thymidine incorporation of stem cells. […] Accordingly, data from TGFα or TGF-α57 show what can be called “TGF-α activity” and that these are predictive of activity of the functional TGF-α peptide and similar functional TGF-α peptides embodied in the genus of formula I with or without the addition of a “tail” region of formula II.
substance,measurement,setting,value
"TGF-α: human transforming growth factor alpha, 50 amino acid polypeptide with three disulfide bonds, SEQ ID NO:1",stability,[1],acid and heat stable
same,estimated pKa of the lysine 29 ε amino,[2],10.4
same,binding affinity,[3],high affinity in the nanomolar range
same,IL-6 and MIP,[4],downregulating IL-6 and MIP
same,TNF-α receptors,[4],downregulating TNF-α receptors
same,mast cell degranulation and histamine release,[4],prevented mast cell degranulation and subsequent histamine release
same,neutrophil trafficking,[4],blocking neutrophil trafficking
same,average crypt height,mouse intestines,more-than-restore crypt height loss
same,CD4^+,[5]; Time 1,28.4%
same,CD8^+,[5]; Time 1,56.3%
same,Dual CD8^+ CD4^+,[5]; Time 1,6.7%
same,Seg,[5]; Time 1,76%
same,Seg,[5]; Time 2,69%
same,CD4^+,[5]; Time 3,36.7%
same,CD8^+,[5]; Time 3,53.1%
same,Dual CD8^+ CD4^+,[5]; Time 3,6.3%
same,Seg,[5]; Time 3,61%
same,CD4^+,[5]; Time 4,31.3%
same,CD8^+,[5]; Time 4,54.0%
same,Dual CD8^+ CD4^+,[5]; Time 4,9.1%
same,Seg,[5]; Time 4,48%
same,CD4^+,[5]; Time 5,33.4%
same,CD8^+,[5]; Time 5,49.8%
same,Dual CD8^+ CD4^+,[5]; Time 5,8.1%
same,Seg,[5]; Time 5,46%
same,CD4^+,[5]; Time 6,35.1%
same,CD8^+,[5]; Time 6,50.3%
same,Dual CD8^+ CD4^+,[5]; Time 6,7.7%
same,Seg,[5]; Time 6,56%
same,stool consistency,"[6]; 300 μg/kg intraperitoneally once, then 50 μg/kg S.C. for 6 days",steady increase in stool consistency
same,wt.,[6]; Time 1,5.80
same,wt.,[6]; Time 2,6.33
same,wt.,[6]; Time 3,6.74
same,wt.,[6]; Time 4,8.21
same,wt.,[6]; Time 5,8.93
same,wt.,[6]; Time 6,9.42
same,weight,"[6]; through the treatment period, 300 μg/kg intraperitoneally once, then 50 μg/kg S.C. for 6 days",steady weight gain
"SCF: Stem Cell Factor, used as a positive control [reference compound]",increase in CD34 positive cells,[7],three-fold
"Loop B: loop peptide region of TGFα, amino acids 16 to 32 (CFHGTCRFLVQEDKPAC)",TGF-α biological activity (stimulation of cellular proliferation),stem cells,Only Loop C showed significant TGF-α activity
"Loop A: loop peptide region of TGFα, amino acids 1-21 starting at the N terminus (VVSHFNDCPDSHTQFCFHGTC)",TGF-α biological activity (stimulation of cellular proliferation),stem cells,Only Loop C showed significant TGF-α activity
"Loop C: loop peptide region of TGFα, amino acids 33 to 50; TGF-α mimetic peptide (VCHSGYVGARCEHADLLA)",TGF-α biological activity (stimulation of cellular proliferation),stem cells,significant TGF-α biological activity
